Data on 13 molecules can be found in patent US8436020B2, “Processes for the preparation of piperidinic derivatives and pharmaceutic compositions containing the same” (priority 2004, dated 2013).

In data set [1] the target is T1, AChE (Homo sapiens, UniProt P22303). The settings on record: read-out: IC50, AChE; cited from earlier work.
The target of a further data set is BuChE (Homo sapiens, UniProt P06276). The following applies: arisugacines and cyclopenine: no BuChE inhibition at this multiple; cyclophostin: BuChE inhibited at this multiple; cited from earlier work.
The target of data set [2] is cholinesterase in homogenized rat brain (Rattus norvegicus, UniProt P37136). The settings on record: for IC50: rat brain homogenate. As for the experimental part:
In all experiments, cholinesterase-independent substrate hydrolysis (non specific) was determined by the inclusion of an experimental group treated with THA 20 μM. Appropriate tissues and reagents (em branco) were also included. Reaction velocities were determined in 3 or 4 repetitions by condition; mean values were calculated and expressed as percentages of relative activity in respect to control (solvent), after subtraction of the non-specific hydrolysis rate. The substances were tested in at least five different concentrations. From the resulting inhibition curve, values in the ranges […] 20%-80% were considered, with concentration limited to 500 μM. The IC50, based in a single-site model, was determined via linear regression.

In data set [3] the test system is amnesia induced by scopolamine. Kind of data set: Amnesia induced by scopolamine in the Morris water maze. The class given is in vivo, Wistar rats. The settings on record: rats, scopolamine 1 mg/kg, 4 days test. As for the experimental part: A total of 39 Wistar rats (females—±200 g) were used.
After 30 minutes of intraperitoneal second administration (saline or scopolamine), the animals were challenged to localize an underwater platform in a round recipient containing opaque water (water maze) and the escape latency (in seconds) was computed. […] Tests were conducted twice a day, during 4 consecutive days.
When treated with scopolamine 30 minutes before the challenge, the animals could not learn the task and the escape latency approaches maximum values (150 s) in the fourth day of the test.

Data set [4] has as its system amnesia induced by scopolamine. Kind of data set: Amnesia induced by scopolamine in the inhibitory avoidance assay. Format: in vivo, Swiss mice. The settings on record: mice. An excerpt: A total of 120 adult male (25-30 g) Swiss mice were used. The animals were submitted to the inhibitory avoidance assay, which consists of a box with a base made of a grid connected to an electrostimulator (0.6 mA/3 s), and containing a wood platform (3 cm^3). Mice were put over this platform; being computed the latency (in seconds) until the animals put the four paws over the grid. In the first day of the test (“training”), animals would receive an adverse electrical stimulus (0.6 mA/3 s) whenever they stepped down to the grid (step down latency—SDL). At this stage, animals that would stay more than 15 seconds over the platform were discarded. Twenty-four hours later, the animals were re-introduced over the platform and the SDL computed (“retention”).

The format of data set [5] is in vivo, mice.
Data set [6] in a line: Cholinergic side effects (diarrhea) 30 minutes after administration, rats. The class given is in vivo. The text has this:
Results from this assay can be seen in FIGS. 8-9.

Data set [7] concerns the target T1, AChE. The settings on record: cited from earlier work; for IC50: read-out: IC50 AChE, tacrine as positive control.
In data set [8] the target is butyrylcholinesterase (BuChE) (Homo sapiens, UniProt P06276). The settings on record: read-out: IC50 BuChE; cited from earlier work.
The nature of data set [9]: Water solubility of the chlorhydrate derivatives.
Data set [10] deals with T1, AChE. The settings on record: read-out: IC50, anticholinesterasic activity; cited from earlier work.
Data set [11] concerns the target T1, AChE. The following applies: cited from earlier work.
The target in data set [12] is T1, AChE. The settings on record: read-out: IC50, AChE activity; cited from earlier work.
The mark [13] stands for this setting: read-out: Experimental IC50, cerebral cholinesterase inhibition, single independent experiment (one animal), acetylthiocholine 1 mM.
Where [14] appears, read: read-out: Mean IC50, cerebral cholinesterase inhibition, mean of N independent experiments.

A word on the IC50: it is the midpoint of a concentration-inhibition curve.

Several values for one entry are separate records, joined by “and”; a condition that tells them apart may be missing. Identical values can stand only once. Entries after “also recorded” stand apart in the source; their conditions may differ. Like-named read-outs stand apart in the source and are kept apart here.

T1 sequence (P22303 32-614): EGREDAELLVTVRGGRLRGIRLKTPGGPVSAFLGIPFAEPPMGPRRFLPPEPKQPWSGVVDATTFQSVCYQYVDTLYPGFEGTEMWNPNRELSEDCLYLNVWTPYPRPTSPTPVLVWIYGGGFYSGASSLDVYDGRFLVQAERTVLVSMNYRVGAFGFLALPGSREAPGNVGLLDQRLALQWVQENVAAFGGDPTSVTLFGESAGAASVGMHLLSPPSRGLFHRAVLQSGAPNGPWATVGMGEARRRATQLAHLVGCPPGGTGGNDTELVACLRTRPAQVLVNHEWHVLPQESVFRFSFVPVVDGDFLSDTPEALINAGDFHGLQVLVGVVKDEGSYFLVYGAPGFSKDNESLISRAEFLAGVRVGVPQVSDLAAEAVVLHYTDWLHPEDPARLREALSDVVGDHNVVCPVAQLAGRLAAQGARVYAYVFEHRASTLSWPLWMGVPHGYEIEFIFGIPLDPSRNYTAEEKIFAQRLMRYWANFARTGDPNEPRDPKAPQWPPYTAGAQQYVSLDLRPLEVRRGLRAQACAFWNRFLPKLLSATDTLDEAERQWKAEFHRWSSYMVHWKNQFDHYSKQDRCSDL
Sequence of cholinesterase in homogenized rat brain (P37136 32-614): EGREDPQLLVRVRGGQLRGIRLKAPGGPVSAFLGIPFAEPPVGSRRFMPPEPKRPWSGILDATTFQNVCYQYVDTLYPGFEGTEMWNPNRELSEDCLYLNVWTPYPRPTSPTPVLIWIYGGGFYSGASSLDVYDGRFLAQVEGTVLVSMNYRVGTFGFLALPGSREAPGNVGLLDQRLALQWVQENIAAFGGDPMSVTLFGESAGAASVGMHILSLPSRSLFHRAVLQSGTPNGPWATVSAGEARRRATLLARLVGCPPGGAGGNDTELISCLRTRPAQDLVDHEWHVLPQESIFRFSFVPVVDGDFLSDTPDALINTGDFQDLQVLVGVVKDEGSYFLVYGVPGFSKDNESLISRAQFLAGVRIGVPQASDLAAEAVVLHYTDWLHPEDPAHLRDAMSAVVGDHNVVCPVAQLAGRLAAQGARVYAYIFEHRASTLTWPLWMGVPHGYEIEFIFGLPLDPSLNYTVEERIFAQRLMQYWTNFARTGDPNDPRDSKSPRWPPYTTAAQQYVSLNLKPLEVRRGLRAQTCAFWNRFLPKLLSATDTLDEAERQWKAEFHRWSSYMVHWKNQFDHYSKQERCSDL
Sequence of BuChE (P06276 29-602): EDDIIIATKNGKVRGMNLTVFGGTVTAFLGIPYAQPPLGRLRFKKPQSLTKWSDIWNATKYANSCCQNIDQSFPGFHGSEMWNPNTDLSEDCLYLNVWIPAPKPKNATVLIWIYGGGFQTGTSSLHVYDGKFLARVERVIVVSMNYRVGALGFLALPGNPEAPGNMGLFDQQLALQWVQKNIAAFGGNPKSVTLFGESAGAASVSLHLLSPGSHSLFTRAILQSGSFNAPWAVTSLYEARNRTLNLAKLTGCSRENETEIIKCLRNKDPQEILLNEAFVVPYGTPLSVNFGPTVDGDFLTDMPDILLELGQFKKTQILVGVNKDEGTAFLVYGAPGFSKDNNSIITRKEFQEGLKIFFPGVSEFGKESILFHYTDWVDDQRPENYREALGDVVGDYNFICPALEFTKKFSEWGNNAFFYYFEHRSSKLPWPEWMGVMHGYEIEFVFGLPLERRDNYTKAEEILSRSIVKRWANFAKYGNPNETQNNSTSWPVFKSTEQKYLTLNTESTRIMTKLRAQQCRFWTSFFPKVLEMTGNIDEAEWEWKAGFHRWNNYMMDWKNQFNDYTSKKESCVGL
Sequence of butyrylcholinesterase (BuChE) (P06276 29-602): as above

For `CN1C(=O)c2ccccc2NC(=O)[C@]12O[C@@H]2c1ccccc1` [cyclopenine], on AChE [1], the half-inhibitory concentration (IC50) is 2.04 µM. Also, at BuChE, the “Concentration tested on BuChE as a multiple of the AChE IC50 (selectivity)” value was > 2,000 times.

`CC(=O)O[C@@H]1CC[C@H](CCCCCCCCCCCCC(C)O)N[C@@H]1C` (stereo partly drawn) [LASSBio-783, (2R,3R,6S)-3-acetoxy-6-(13-hydroxy-tetradecyl-2-methyl)-piperidine chlorhydrate]: the IC50 was 333 µM and 702 µM and 242 µM in [2] (setting [13]); 426 µM in data set [2] (setting [14]).

With `Nc1c2c(nc3ccccc13)CCCC2` [Tacrine, tacrine, reference compound], the “Reversion of amnesia induced by scopolamine, escape latency in water maze” value (“Reversion of amnesia induced … in water maze” for short) in data set [3] (1 mg/kg) is “antagonize the induced amnesia by scopolamine, a significant effect in the fourth day of the study”. Also, the “Reversion of amnesia induced by scopolamine, step down latency” value (shortened to “Reversion … step down latency”) in data set [4] (5.6 mg/kg) is given as “complete reversion of the amnesia induced by scopolamine; also recorded: totally reversed the effect of scopolamine”. In addition, in [5] (10 mg/kg I.P., mice), the “Mice with diarrhea and urination” value is recorded as 70%; the “Other side effects observed” value is “hypothermia and diminished motor activity”. Also, the “Cholinergic side effect parameters” value in data set [5] (concentrations superior to 30 mg/kg, mice) was “all checked parameters are altered”. In [6] (1 mg/kg), this molecule showed an Animals with diarrhea of 100%.

As to `CC[C@H](C)[C@H]1NC(=O)c2c1n(C)c1ccccc1c2=O` [quinolactacin A1], the IC50 at AChE [7] is 280 µM.

In the case of `CC[C@H](C)[C@@H]1NC(=O)c2c1n(C)c1ccccc1c2=O` [quinolactacin A2], at AChE [7], the “Inhibitory AChE activity relative to diastereoisomer A1” value is 14 times and the half-maximal inhibitory concentration (IC50) was 19.8 µM. In addition, in [8], the IC50 is 650 µM.

Consider `CC(=O)CCCCCCCCCCCC[C@H]1CC[C@@H](O)[C@@H](C)N1.Cl` [LASSBio-768, Espectaline Chlorhydrate], for which, in [2], the “AChE inhibitory capacity ex vivo” value is given as “remarkable anticholinesterasic activity”. For the same molecule, the IC50 in data set [2] (setting [13]) was 195 µM and 278 µM; in data set [2] (setting [14]), 236 µM. Moreover, the Solubility in water entry in data set [9] is given as “water-soluble”.

With `C=C1CC[C@H]2C(C)(C)[C@@H](O)CC[C@]2(C)[C@H]1CC[C@H]1C(=C)CC[C@H]2C(C)(C)[C@@H](O)CC[C@]12C` [α-onocerine, α-onocerin], the IC50 on AChE [10] is 5.2 µM.

Take `COc1cc(-c2cc3c(c(=O)o2)C[C@]2(O)[C@@]4(C)C(=O)C=CC(C)(C)[C@]4(O)CC[C@@]2(C)O3)cc(OC)c1OC` [territrem B]: at AChE [1], the IC50 was 0.0076 µM. For the same molecule, on AChE [11], the “Potency relative to neostigmine in AChE inhibition” value was “approximately 20 times”.

In the case of `C/C(=C\CNc1ncnc2nc[nH]c12)CO` [zeatine], on AChE [12], the IC50 was 109 µM.

For the molecule `CC(=O)CCCCCCCCCCCC[C@H]1CC[C@@H](OC(=O)OC(C)(C)C)[C@@H](C)N1.Cl` [LASSBio-822, 2-(R)-methyl-3-(R)—O-ter-butoxycarbonyl-6-(S)-(tetradecyl-13′-one)-piperidine chlorhydrate], the “AChE inhibitory capacity ex vivo” value in [2] is on record as “remarkable anticholinesterasic activity”. For the same molecule, the IC50 was 9.15 µM and 16.2 µM and 19.9 µM in data set [2] (setting [13]); 15.1 µM in data set [2] (setting [14]). Further, in [3] (1 mg/kg), the “Reversion of amnesia induced … in water maze” value is given as “not capable of antagonize the amnesia induced by scopolamine”. Also, in data set [4] (1 and 3 mg/kg, scopolamine 1 mg/kg), the “Reversion … step down latency” value is given as “significant partial reversion of the amnesia induced by scopolamine; also recorded: capable of a significant reversion of the amnesia induced by scopolamine”. The Solubility in water entry in data set [9] was “water-soluble”.

Consider `CO[P@]1(=O)OC[C@H]2COC(=O)C2=C(C)O1` [cyclophostin], for which the IC50 on AChE [1] is 0.0013 µM. In addition, the “Concentration tested on BuChE as a multiple of the AChE IC50 (selectivity)” value at BuChE was 35 times.

For the molecule `CC(=O)CCCCCCCCCCCC[C@H]1CC[C@@H](OC(C)=O)[C@@H](C)N1.Cl` [LASSBio-767, 2-(R)-methyl-3-(R)—O-acetyl-6-(S)-(tetradecyl-13′-one)-piperidine chlorhydrate], the “AChE inhibitory capacity ex vivo” value in data set [2] was “remarkable anticholinesterasic activity”. In addition, the concentration for half-maximal inhibition (IC50) in data set [2] (setting [13]) was 4.82 µM and 4.49 µM; in [2] (setting [14]), 4.65 µM. Also, the “Reversion of amnesia induced … in water maze” value is “superior effect in relation to tacrine in the reversion of the induced amnesia by scopolamine” in [3] (1 mg/kg) and “also observed” in data set [3] (10 mg/kg). For the same molecule, in data set [4] (1 and 10 mg/kg, scopolamine 1 mg/kg), the “Reversion … step down latency” value is listed as “do not differ from the ones treated only with scopolamine; also recorded: did not present any effect on the amnesia induced by scopolamine”. For the same molecule, the “Cholinergic side effects and motor activity” value in data set [5] (10 mg/kg) was “no cholinergic side effects and no interference in the motor activity”. The Occurrence of diarrhea entry in [6] was “Only animals treated with tacrine presented diarrhea”. The Solubility in water entry in [9] is reported as “water-soluble”.

Regarding `COc1cc(-c2cc3c(c(=O)o2)C[C@]2(O)[C@@]4(C)C(=O)C=CC(C)(C)[C@]4(O)CC[C@@]2(C)O3)cc(OC)c1O` [territrem C], the 50% inhibitory concentration (IC50) at AChE [1] was 0.0068 µM.
